9 molecules from patent US11116760B2 (Gilead Sciences, Inc., priority 2018, dated 2021) can be followed below.

In this experiment the target is α4β7 integrin (Homo sapiens (Human), UniProt P13612+P26010). Briefly: α4β7 Integrin Cell Capture Assay. It counts as cell-based. As to conditions: Table 1; capture of α4β7 expressing RPM18866 cells on MadCAM-1 extracellular domain-coated plate.
α4β7 integrin, sequence (P13612 34-1032): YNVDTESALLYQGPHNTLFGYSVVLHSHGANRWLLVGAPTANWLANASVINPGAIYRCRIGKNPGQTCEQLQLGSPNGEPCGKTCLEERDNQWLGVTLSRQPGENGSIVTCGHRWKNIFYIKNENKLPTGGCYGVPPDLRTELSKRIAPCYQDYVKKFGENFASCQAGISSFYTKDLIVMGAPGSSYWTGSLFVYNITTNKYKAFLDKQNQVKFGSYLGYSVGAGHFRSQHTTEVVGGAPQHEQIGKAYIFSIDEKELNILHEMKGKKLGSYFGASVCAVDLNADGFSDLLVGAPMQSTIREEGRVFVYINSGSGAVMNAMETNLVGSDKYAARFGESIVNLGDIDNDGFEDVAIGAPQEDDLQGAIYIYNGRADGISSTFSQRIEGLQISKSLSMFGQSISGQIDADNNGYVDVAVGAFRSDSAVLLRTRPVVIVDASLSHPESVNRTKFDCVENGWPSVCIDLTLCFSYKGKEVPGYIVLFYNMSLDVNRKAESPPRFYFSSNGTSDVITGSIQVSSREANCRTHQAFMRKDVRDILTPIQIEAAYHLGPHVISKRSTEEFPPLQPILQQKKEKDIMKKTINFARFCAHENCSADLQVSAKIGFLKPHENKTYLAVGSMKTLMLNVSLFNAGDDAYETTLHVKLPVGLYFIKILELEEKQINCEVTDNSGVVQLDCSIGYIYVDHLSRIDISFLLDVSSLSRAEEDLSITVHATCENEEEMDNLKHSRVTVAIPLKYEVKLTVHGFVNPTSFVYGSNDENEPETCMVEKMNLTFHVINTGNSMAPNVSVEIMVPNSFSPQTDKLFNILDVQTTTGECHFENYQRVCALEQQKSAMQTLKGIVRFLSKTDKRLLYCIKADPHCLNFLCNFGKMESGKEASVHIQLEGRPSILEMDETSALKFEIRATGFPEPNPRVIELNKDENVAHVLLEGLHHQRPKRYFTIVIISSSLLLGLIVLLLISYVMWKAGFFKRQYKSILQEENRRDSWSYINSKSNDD
α4β7 integrin, sequence (P26010 20-798): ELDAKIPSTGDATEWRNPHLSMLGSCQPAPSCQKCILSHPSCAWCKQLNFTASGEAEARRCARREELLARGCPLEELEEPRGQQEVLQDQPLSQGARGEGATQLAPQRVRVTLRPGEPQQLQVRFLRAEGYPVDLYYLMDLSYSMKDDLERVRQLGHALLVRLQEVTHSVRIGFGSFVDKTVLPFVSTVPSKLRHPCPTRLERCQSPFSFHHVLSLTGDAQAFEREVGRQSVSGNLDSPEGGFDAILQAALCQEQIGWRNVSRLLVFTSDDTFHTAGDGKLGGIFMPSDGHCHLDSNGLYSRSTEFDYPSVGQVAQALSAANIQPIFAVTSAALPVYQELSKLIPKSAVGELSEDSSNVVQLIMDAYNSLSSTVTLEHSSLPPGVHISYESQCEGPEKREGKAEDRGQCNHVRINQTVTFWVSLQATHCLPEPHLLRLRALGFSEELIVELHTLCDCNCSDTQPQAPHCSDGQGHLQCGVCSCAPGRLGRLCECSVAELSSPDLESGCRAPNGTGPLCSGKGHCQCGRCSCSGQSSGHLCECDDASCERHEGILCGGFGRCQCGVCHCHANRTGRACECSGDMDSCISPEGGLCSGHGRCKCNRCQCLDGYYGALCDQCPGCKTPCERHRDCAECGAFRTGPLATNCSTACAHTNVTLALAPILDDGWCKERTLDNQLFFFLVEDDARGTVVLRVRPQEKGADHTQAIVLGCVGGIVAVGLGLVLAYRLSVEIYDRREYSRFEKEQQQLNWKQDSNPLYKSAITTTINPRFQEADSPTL

As usually defined, the EC50 is the concentration needed to bring the measured effect to its halfway point. In turn, `CC[C@@H](Nc1cc(F)c(C(=O)N[C@@H](Cc2ccc(-c3cc4ccncc4n(C)c3=O)c3ncccc23)C(=O)O)c(F)c1)C(F)(F)F` [Example 110, (S)-2-(2,6-difluoro-4-(((R)-1,1,1-trifluorobutan-2-yl)amino)benzamido)-3-(8-(1-methyl-2-oxo-1,2-dihydro-1,7-naphthyridin-3-yl)quinolin-5-yl)propanoic acid] yielded an EC50 of 0.3 nM.
In turn, `CC[C@@H](Nc1cc(F)c(C(=O)N[C@@H](Cc2ccc(-c3c(C(F)(F)F)c4ccncc4n(C)c3=O)c3ncccc23)C(=O)O)c(F)c1)C(F)(F)F` [Example 111, (S)-2-(2,6-difluoro-4-(((R)-1,1,1-trifluorobutan-2-yl)amino)benzamido)-3-(8-(1-methyl-2-oxo-4-(trifluoromethyl)-1,2-dihydro-1,7-naphthyridin-3-yl)quinolin-5-yl)propanoic acid] had an EC50 of 0.1 nM. This EC50 is about 3-fold lower than that of the molecule before.
Turning to `CC[C@@H](Nc1cc(F)c(C(=O)N[C@@H](Cc2ccc(-c3c(C)n(C)c(=O)n(C)c3=O)c3ncccc23)C(=O)O)c(F)c1)C(F)(F)F` [Example 114, (S)-2-(2,6-difluoro-4-(((R)-1,1,1-trifluorobutan-2-yl)amino)benzamido)-3-(8-(1,3,6-trimethyl-2,4-dioxo-1,2,3,4-tetrahydropyrimidin-5-yl)quinolin-5-yl)propanoic acid], the EC50 was 0.6 nM. Against the preceding molecule, the EC50 is about 6-fold higher.
`CC[C@@H](Nc1cc(F)c(C(=O)N[C@@H](Cc2ccc(-c3c(C)c(C)c(C)n(C)c3=O)c3ncccc23)C(=O)O)c(F)c1)C(F)(F)F` [Example 115, (S)-2-(2,6-difluoro-4-(((R)-1,1,1-trifluorobutan-2-yl)amino)benzamido)-3-(8-(1,4,5,6-tetramethyl-2-oxo-1,2-dihydropyridin-3-yl)quinolin-5-yl)propanoic acid] had an EC50 of 0.6 nM.
`CC[C@@H](Nc1cc(F)c(C(=O)N[C@@H](Cc2ccc(-c3cc(Cl)c(C)n(C)c3=O)c3ncccc23)C(=O)O)c(F)c1)C(F)(F)F` [Example 116, (S)-3-(8-(5-chloro-1,6-dimethyl-2-oxo-1,2-dihydropyridin-3-yl)quinolin-5-yl)-2-(2,6-difluoro-4-(((R)-1,1,1-trifluorobutan-2-yl)amino)benzamido)propanoic acid] yielded a concentration giving a half-maximal response (EC50) of 1.2 nM.
The molecule `CC[C@@H](Nc1cc(F)c(C(=O)N[C@@H](Cc2ccc(-c3nc(C)c(C)n(C)c3=O)c3ncccc23)C(=O)O)c(F)c1)C(F)(F)F` [Example 117, (S)-2-(2,6-difluoro-4-(((R)-1,1,1-trifluorobutan-2-yl)amino)benzamido)-3-(8-(4,5,6-trimethyl-3-oxo-3,4-dihydropyrazin-2-yl)quinolin-5-yl)propanoic acid] had an EC50 of 0.7 nM.
In turn, `CC[C@@H](Nc1cc(F)c(C(=O)N[C@@H](Cc2ccc(-c3cnc(C)n(C)c3=O)c3ncccc23)C(=O)O)c(F)c1)C(F)(F)F` [Example 118, (S)-2-(2,6-difluoro-4-(((R)-1,1,1-trifluorobutan-2-yl)amino)benzamido)-3-(8-(1,2-dimethyl-6-oxo-1,6-dihydropyrimidin-5-yl)quinolin-5-yl)propanoic acid] returned an EC50 of 1.5 nM.
`CC[C@@H](Nc1cc(F)c(C(=O)N[C@@H](Cc2ccc(-c3nn(C)c(=O)cc3C)c3ncccc23)C(=O)O)c(F)c1)C(F)(F)F` [Example 119, (S)-2-(2,6-difluoro-4-(((R)-1,1,1-trifluorobutan-2-yl)amino)benzamido)-3-(8-(1,4-dimethyl-6-oxo-1,6-dihydropyridazin-3-yl)quinolin-5-yl)propanoic acid] returned an EC50 of 20.5 nM.
Molecule `CC[C@@H](Nc1cc(F)c(C(=O)N[C@@H](Cc2ccc(-c3nc(C)ccc3OC)c3ncccc23)C(=O)O)c(F)c1)C(F)(F)F` [Example 120, (S)-2-(2,6-difluoro-4-(((R)-1,1,1-trifluorobutan-2-yl)amino)benzamido)-3-(8-(3-methoxy-6-methylpyridin-2-yl)quinolin-5-yl)propanoic acid] displayed an EC50 of 1.3 nM.
